US6326386A, “Benzamide derivatives as thrombin inhibitors” (Glaxo Group Limited, priority 1995, dated 2001)

Target: T1, human α-thrombin (Homo sapiens, UniProt P00734)
T1 construct: human α-thrombin
Assay: Inhibition of human α-thrombin in a chromogenic assay (N-p-tosyl-gly-pro-lys p-nitroanilide substrate)
Format: biochemical
Conditions: human α-thrombin 1 nM, substrate 100 μM, pH 7.4, room temperature, 405 nm; preincubation (zero or 15 mins) not given
Procedure: All dilutions were made in a buffer consisting of: 50 mM HEPES, 150 mM NaCl, 5 mM CaCl2, 0.1% PEG and at pH 7.4. Briefly, the substrate (final conc. of 100 μM) was added to thrombin (final conc. of 1 nM) and the reaction monitored for 10 mins at 405 nm using a Biotek EL340 plate reader; the assay was performed at room temperature. To obtain IC50 s the data were analyzed using Kineticalc® with a 4-parameter curve fitting procedure to obtain the IC50 value.
The compounds of the present invention are thrombin inhibitors. The results below illustrate the thrombin activity of a range of compounds of formula (I) using the previously described biological method: […]

| SMILES | IC50 [nM] |
| --- | --- |
| Cc1cc(OCCNc2ccncc2)cc(C(=O)N(C)C2CCCCC2)c1 [Example 1, N-Cyclohexyl-3, N-dimethyl-5-[2-(pyridin-4-ylamino)-ethoxy]-benzamide] | 8 |
| C=CCN(C(=O)c1cc(Cl)cc(OCCNc2ccncc2)c1)C1CCCC1 [Example 6, N-Allyl-3-chloro-N-cyclopentyl-5-[2-(pyridin-4-ylamino)-ethoxy]-benzamide] | 5 |
| O=C(c1cc(Cl)cc(OCCNc2ccncc2)c1)N(CCCO)C1CCCC1 [Example 9, 3-Chloro-N-cyclopentyl-N-(3-hydroxy-propyl)-5-[2-(pyridin-4-ylamino)-ethoxy]-benzamide] | 7 |
| O=C(c1cc(Cl)cc(OCCNc2ccncc2)c1)N(CCCN1CCOCC1)C1CCCC1 [Example 13, 3-Chloro-N-cyclopentyl-N-(3-morpholin-4-yl-propyl)-5-[2-(pyridin-4-ylamino)-ethoxy]-benzamide] | 15 |
| CCOC(=O)CCCN(C(=O)c1cc(Cl)cc(OCCNc2ccncc2)c1)C1CCCC1 [Example 17, 4-({3-Chloro-5-[2-(pyridin-4-ylamino)-ethoxy]-benzoyl}-cyclopentyl-amino)-butyric acid ethyl ester] | 14 |
| O=C(CCCN(C(=O)c1cc(Cl)cc(OCCNc2ccncc2)c1)C1CCCC1)N1CCCC1 [Example 20, 3-Chloro-N-cyclopentyl-N-(4-oxo-4-pyrrolidin-1-yl-butyl)-5-[2-(pyridin-4-ylamino)-ethoxy]-benzamide] | 9 |
| CCCN(C(=O)c1cc(Cl)cc(OCCNc2ccncc2)c1)c1cc(F)cc(F)c1 [Example 29, 3-Chloro-N-(3,5-difluoro-phenyl)-N-propyl-5-[2-(pyridin-4-ylamino)-ethoxy]-benzamide] | 62 |
| O=C(CCCN(C(=O)c1cc(Cl)cc(OCCNc2ccncc2)c1)c1ccccc1F)N1CCCC1 [Example 37, 3-Chloro-N-(2-fluoro-phenyl)-N-(4-oxo-4-pyrrolidin-1-yl-butyl)-5-[2-(pyridin-4-ylamino)-ethoxy]-benzamide] | 17 |
| O=C(c1cc(Cl)cc(OCCNc2ccncc2)c1)N(CCCc1nnn[nH]1)c1ccccc1F [Example 40, 3-Chloro-N-(2-fluoro-phenyl)-5-[2-(pyridin-4-ylamino)-ethoxy]-N-[3-(1H-tetrazol-5-yl)-propyl]-benzamide] | 9 |
| O=C(c1cc(Cl)cc(OCCNc2ccncc2)c1)N(CCOCC(O)CO)c1ccccc1 (stereo not drawn) [Example 41, 3-Chloro-N-[2-(2,3-dihydroxy-propoxy)-ethyl]-N-phenyl-5-[2-(pyridin-4-ylamino)-ethoxy]-benzamide] | 28 |
| CC(C)(C)NC(=O)CCN(C(=O)c1cc(Cl)cc(OCCNc2ccncc2)c1)c1ccccc1 [Example 47, N-(2-tert-Butylcarbamoyl-ethyl)-3-chloro-N-phenyl-5-[2-(pyridin-4-ylamino)ethoxy]-benzamide] | 61 |
| O=C(CCN(C(=O)c1cc(Cl)cc(OCCNc2ccncc2)c1)c1ccccc1)N1CCSCC1 [Example 49, 3-Chloro-N-(3-oxo-3-thiomorpholin-4-yl-propyl)-N-phenyl-5-[2-(pyridin-4-ylamino)-ethoxy]-benzamide] | 38 |
| NC(=O)CCN(CC1CC1)C(=O)c1cc(Cl)cc(OCCNc2ccncc2)c1 [Example 55, N-(2-Carbamoyl-ethyl)-3-chloro-N-cyclopropylmethyl-5-[2-(pyridin-4-ylamino)-ethoxy]-benzamide] | 50 |
| CC(C)N(CCC(N)=O)C(=O)c1cc(Cl)cc(OCCNc2ccncc2)c1 [Example 58, N-(2-Carbamoyl-ethyl)-3-chloro-N-isopropyl-5-[2-(pyridin-4-ylamino)-ethoxy]-benzamide] | 107 |
| CC(C)N(CCCNS(C)(=O)=O)C(=O)c1cc(Cl)cc(OCCNc2ccncc2)c1 [Example 72, 3-Chloro-N-isopropyl-N-(3-methanesulfonylamino-propyl)-5-[2-(pyridin-4-ylamino)-ethoxy]-benzamide] | 63 |
| O=C(c1cc(Cl)cc(OCCNc2ccncc2)c1)N(CCCn1cncn1)c1ccc(F)cc1 [Example 90, 3-Chloro-N-(4-fluoro-phenyl)-5-[2-(pyridin-4-ylamino)-ethoxy]-N-(3-[1,2,4]triazol-1-yl-propyl)-benzamide] | 22 |
| O=C(c1cc(Cl)cc(OCCNc2ccncc2)c1)N(CCn1cncn1)C1CCCC1 [Example 91, 3-Chloro-N-cyclopentyl-5-[2-(pyridin-4-ylamino)-ethoxy]-N-(2-[1,2,4]triazol-1-yl-ethyl)-benzamide] | 34 |
| O=C(c1cc(Cl)cc(OCCNc2ccncc2)c1)N(CCCCn1cncn1)C1CCCC1 [Example 92, 3-Chloro-N-cyclopentyl-5-[2-(pyridin-4-ylamino)-ethoxy]-N-(4-[1,2,4]triazol-1-yl-butyl)-benzamide] | 15 |
| COCCN(C(=O)c1cc(Cl)cc(OCCNc2ccncc2)c1)C(C)C [Example 99, 3-Chloro-N-isopropyl-N-(2-methoxy-ethyl)-5-[2-(pyridin-4-ylamino)-ethoxy]-benzamide] | 40 |
| CC(C)N(CCc1noc(O)n1)C(=O)c1cc(Cl)cc(OCCNc2ccncc2)c1 [Example 109] | 140 |
| CC(C)CN(Cc1ccc(C(=O)O)cc1)C(=O)c1cc(Cl)cc(OCCNc2ccncc2)c1 [Example 118, 4-[({3-Chloro-5-[2-(pyridin-4-ylamino)-ethoxy]-benzoyl}-isobutyl-amino)-methyl]-benzoic acid] | 10 |
| O=C(O)CCCCCN(CC1CCCCC1)C(=O)c1cc(Cl)cc(OCCNc2ccncc2)c1 [Example 124, 6-({3-Chloro-5-[2-(pyridin-4-ylamino)-ethoxy]-benzoyl}-cyclohexylmethyl-amino)-hexanoic acid] | 28 |
| O=C(O)CCCN(C(=O)c1cc(Cl)cc(OCCNc2ccncc2)c1)C1CCC1 [Example 128, 4-({3-Chloro-5-[2-(pyridin-4-ylamino)-ethoxy]-benzol}-cyclobutyl-amino)-butyric acid] | 41 |
| NC(=O)CCCCCN(Cc1ccco1)C(=O)c1cc(Cl)cc(OCCNc2ccncc2)c1 [Example 138, N-(5-Carbamoyl-pentyl)-3-chloro-N-furan-2-ylmethyl-5-[2-(pyridin-4-ylamino)-ethoxy]-benzamide] | 91 |
